# Measured values reported in patent publication US12473262B2, “Aryl hydrocarbon receptor activators” (Oregon State University, priority 2019, dated 2025).
# Like-named read-outs stand apart in the source and are kept apart here.
# How the values were obtained:
# [1] = target: aryl hydrocarbon receptor (AhR) (Mus musculus (Mouse), UniProt P30561); experiment: AhR ligand screening: AhRE-luciferase reporter in transfected Hepa1 cells; assay type: cell-based; conditions: for Fold @ 1 nM: fold change of luciferase expression at 1 nM test compound relative to vehicle (0.1% DMSO); for Fold @ 100 nM: fold change of luciferase expression at 100 nM test compound relative to vehicle (0.1% DMSO); for Fold @ 10 uM: fold change of luciferase expression at 10 uM test compound relative to vehicle (0.1% DMSO); for Fold relative to benchmark @ 100 nM: luciferase expression at 100 nM test compound relative to 100 nM benchmark compound 11-cl-BBQ
# Method in brief: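 Mouse Hepa1 cells transfected with an AhRE-luciferase reporter were plated at 1×10^4 cells/well, grown overnight, then exposed to compounds. Cell lysates were assayed for luciferase by luminometry, with results given as fold induction over 0.1% DMSO vehicle.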
# CYP-2C8 = CYP-2C8 (Homo sapiens (Human), UniProt P10632); experiment: CYP panel profile: P450 inhibition, CYP-2C8; assay type: in vitro ADME; conditions: human liver microsomes
# Method: (§1) 5. CYP Panel Profile: P450 Inhibition
# (§2) From 10 mM stock solutions of test compounds, a dilution plate was prepared diluting serially starting from 5 mM up to 2 μM in Acetonitrile/DMSO or Methanol/DMSO Human liver Microsomes were added at required concentration as per specific CYP isoform in a deep well assay plate (1A2, 2C9, 2D6, 2B6, 2C8, 2C19, and 3A4). Compounds were spiked in all wells from dilution plate at final concentrations starting from 50 μM up to 0.02 μM, except for positive and negative control. Specific substrate were added to all wells and reactions were pre-incubated for 10 min. To start reactions, NADPH was added to all wells at 1 mM final concentration. Assay plate was mixed by vortexing and incubated at 37° C. for […] for 3A4.20 min for (1A2, 2C9, 2B6, 2C8, 2D6) and […] for 2C19. A quencher with chilled acetonitrile suitable internal standard was added. Samples were centrifuged and supernatants were collected and subjected to LC-MS/MS analysis for determination.
# CYP-1A2 = CYP-1A2 (Homo sapiens (Human), UniProt P05177); experiment: CYP panel profile: P450 inhibition, CYP-1A2; assay type: in vitro ADME
# Method: as §1, §2
# CYP-2B6 = CYP-2B6 (Homo sapiens (Human), UniProt P20813); experiment: CYP panel profile: P450 inhibition, CYP-2B6; assay type: in vitro ADME; conditions: human liver microsomes
# Method: as §1, §2
# CYP-2D6 = CYP-2D6 (Homo sapiens (Human), UniProt P10635); experiment: CYP panel profile: P450 inhibition, CYP-2D6; assay type: in vitro ADME; conditions: human liver microsomes
# Method: as §1, §2
# CYP-3A4 = CYP-3A4 (Homo sapiens (Human), UniProt P08684); experiment: CYP panel profile: P450 inhibition, CYP-3A4; assay type: in vitro ADME; conditions: human liver microsomes
# Method: as §1, §2
# CYP-2C9 = CYP-2C9 (Homo sapiens (Human), UniProt P11712); experiment: CYP panel profile: P450 inhibition, CYP-2C9; assay type: in vitro ADME; conditions: human liver microsomes
# Method: as §1, §2
# CYP-2C19 = CYP-2C19 (Homo sapiens (Human), UniProt P33261); experiment: CYP panel profile: P450 inhibition, CYP-2C19; assay type: in vitro ADME; conditions: human liver microsomes
# Method: as §1, §2
# [2] = Liver microsomal stability, mouse
# [3] = In vivo PK study, intravenous and oral administration in male mice; design: species or system mouse; conditions: plasma; for C0: read-out: C0_Cmax
# Method: In Vivo PK Study Pharmacokinetics of Exemplary Compounds 362 and 893 Following an Intravenous and Oral Administration in Male C57BL/6J Mice.
# Male C57BL/6J mice, approximately 8-10 weeks old, were obtained from the vivarium of Fundación Ciencia & Vida Chile (Santiago, Chile). Dosing solution of Compound 362 for PO administration was formulated in a vehicle containing 40% DMSO, 20% Kolliphor EL, 40% Propylene Glycol at 0.8 mg/mL. Dosing solution of Compound 362 for IV administration was formulated in a vehicle containing 30% DMSO, 20% Kolliphor EL, 50% PBS at […].
# Male […] mice, approximately 8-11 weeks old, 22-27 grams were obtained from the vivarium Fundación Ciencia & Vida Chile (Santiago, Chile). Animals were acclimated for a minimum period of 4 days upon arrival at the testing facility. Animals were weighed, identified by marking the tail with numbers using a non-toxic permanent marker and designated into the following treatment groups on the day of dosing:
# Group 1 animals received an IV administration via caudal vein of 2 mg/kg PRXS0362 dosing solution.
# Group 2 animals received a PO administration via feeding tubes (20 gauge) of 8 mg/kg PRXS0362 dosing solution.
# Terminal whole blood was collected via cardiac puncture for group 1 at the following time points: 5, 10, 15, 30, 60, 120, 240, 360, and 480 minutes. Non-dosed mice were used to collect samples of zero time points. For the group 2 at the following time point: 15, 30, 60, 120, 240, 360, and 480 minutes.
# Whole blood, approximately 300 μL per time point, was collected into microtainer tubes with EDTA (K2). Blood samples were centrifuged immediately at approximately 9,000 G at 4° C. for 5 minutes and plasma separated. Plasma samples were placed into individually labeled tubes and stored in a −80° C. freezer prior to LC/MS/MS analysis.
# The whole brain was collected at each point only for both groups, for this the animals were euthanized with CO2, decapitated, the brain was extracted weighed, frozen in liquid nitrogen and stored at −80° C. prior to LC/MS/MS analysis.
# Compound 893 was tested by the same protocol as above.
# [4] = Liver microsomal stability, rat
# Method: The assessment of metabolic stability of testing compounds was performed using human, mouse, rat, dog and monkey liver microsomes (20 mg protein/ml). Each reaction mixture contained 42.5 μL of 0.1 M potassium phosphate buffer pH 7.4, containing respective LM protein (final concentration 0.5 mg/ml). 2.5 μL of the compound stock solution was added in it (1 μM final concentration). The reaction was initiated by the addition of 5 μL NADPH solution (final Concentration 1 mM). At different time points (0, 5, 15, and 30 minutes), samples were quenched with 200 μL of cold acetonitrile containing ISTD Propranolol. Samples were centrifuged at 3500 rpm for 20 mM at 4° C. Supernatant was subjected to LC-MS/MS analysis for quantification. Verapamil was used as a positive control.
# [5] = human liver microsomes, read-out: CYP-1A2 IC50
# [6] = mouse, liver microsomes, pH 7.4
# CYP-2C9, sequence (P11712 whole entry): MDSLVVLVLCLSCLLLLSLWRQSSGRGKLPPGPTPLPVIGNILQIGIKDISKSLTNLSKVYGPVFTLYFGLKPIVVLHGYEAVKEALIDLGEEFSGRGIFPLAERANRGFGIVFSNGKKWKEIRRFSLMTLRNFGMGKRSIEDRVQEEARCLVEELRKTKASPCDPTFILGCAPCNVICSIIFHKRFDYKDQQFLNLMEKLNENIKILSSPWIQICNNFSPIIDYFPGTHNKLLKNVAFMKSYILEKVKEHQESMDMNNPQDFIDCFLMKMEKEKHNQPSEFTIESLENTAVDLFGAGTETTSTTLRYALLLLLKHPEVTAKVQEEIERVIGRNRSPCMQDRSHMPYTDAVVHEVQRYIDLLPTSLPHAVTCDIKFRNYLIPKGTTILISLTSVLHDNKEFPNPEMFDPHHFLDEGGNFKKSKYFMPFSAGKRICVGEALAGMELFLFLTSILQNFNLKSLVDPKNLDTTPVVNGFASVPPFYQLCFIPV
# CYP-2B6, sequence (P20813 whole entry): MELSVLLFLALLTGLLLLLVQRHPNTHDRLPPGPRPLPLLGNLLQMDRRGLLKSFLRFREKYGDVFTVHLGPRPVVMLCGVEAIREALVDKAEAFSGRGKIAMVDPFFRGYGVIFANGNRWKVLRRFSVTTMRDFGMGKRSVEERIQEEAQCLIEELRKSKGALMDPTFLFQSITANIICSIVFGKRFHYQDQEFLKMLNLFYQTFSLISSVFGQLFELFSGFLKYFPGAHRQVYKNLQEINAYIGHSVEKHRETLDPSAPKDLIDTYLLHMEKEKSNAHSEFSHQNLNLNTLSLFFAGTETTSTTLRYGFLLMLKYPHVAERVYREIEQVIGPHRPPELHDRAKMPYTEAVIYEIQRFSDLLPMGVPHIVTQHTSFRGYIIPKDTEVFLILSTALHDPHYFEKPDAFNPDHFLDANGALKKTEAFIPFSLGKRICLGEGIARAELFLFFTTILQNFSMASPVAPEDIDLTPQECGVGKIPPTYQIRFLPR
# aryl hydrocarbon receptor (AhR), sequence (P30561 10-805): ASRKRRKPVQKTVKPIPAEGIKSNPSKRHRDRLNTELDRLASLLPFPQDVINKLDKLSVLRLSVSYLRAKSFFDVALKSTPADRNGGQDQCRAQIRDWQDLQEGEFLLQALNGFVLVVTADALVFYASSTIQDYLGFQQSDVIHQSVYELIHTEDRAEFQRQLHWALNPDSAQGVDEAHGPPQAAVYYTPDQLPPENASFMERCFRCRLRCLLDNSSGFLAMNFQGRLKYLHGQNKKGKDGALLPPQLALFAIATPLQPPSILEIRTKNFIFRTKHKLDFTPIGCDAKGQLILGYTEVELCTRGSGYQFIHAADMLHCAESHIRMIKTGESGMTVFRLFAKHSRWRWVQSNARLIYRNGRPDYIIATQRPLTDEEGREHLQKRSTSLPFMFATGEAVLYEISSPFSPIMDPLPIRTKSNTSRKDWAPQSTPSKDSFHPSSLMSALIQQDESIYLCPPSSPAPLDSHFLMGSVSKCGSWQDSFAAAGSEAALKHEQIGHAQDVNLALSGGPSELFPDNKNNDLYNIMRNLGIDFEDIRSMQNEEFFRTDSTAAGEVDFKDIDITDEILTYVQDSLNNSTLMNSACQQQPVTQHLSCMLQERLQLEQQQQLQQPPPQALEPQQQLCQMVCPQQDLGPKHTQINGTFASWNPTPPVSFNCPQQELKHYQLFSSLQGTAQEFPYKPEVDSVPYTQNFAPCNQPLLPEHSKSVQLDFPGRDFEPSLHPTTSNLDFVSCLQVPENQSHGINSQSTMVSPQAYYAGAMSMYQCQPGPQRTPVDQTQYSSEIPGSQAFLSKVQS
# aryl hydrocarbon receptor (AhR), sequence (P53762 whole entry partner): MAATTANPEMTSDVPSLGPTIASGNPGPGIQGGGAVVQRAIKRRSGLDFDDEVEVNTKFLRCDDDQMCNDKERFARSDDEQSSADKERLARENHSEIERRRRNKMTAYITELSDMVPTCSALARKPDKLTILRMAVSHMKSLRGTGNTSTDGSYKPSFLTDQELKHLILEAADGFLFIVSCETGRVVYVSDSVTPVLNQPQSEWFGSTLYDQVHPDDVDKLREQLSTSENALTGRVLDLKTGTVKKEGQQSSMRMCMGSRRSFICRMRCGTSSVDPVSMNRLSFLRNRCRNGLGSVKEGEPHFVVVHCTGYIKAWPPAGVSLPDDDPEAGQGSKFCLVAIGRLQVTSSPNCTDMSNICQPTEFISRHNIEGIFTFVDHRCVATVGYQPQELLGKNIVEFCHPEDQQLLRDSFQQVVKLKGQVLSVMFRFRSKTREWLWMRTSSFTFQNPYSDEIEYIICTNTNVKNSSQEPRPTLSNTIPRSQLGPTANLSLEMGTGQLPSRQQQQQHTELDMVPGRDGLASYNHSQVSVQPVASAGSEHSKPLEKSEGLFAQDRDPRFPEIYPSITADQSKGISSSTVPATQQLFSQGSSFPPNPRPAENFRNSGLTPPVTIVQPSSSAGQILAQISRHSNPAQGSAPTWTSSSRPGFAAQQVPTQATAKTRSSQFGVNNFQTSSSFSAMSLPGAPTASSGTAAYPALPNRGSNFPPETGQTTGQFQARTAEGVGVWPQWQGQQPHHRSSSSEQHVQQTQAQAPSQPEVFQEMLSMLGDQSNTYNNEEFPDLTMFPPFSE
# CYP-2C8, sequence (P10632 whole entry): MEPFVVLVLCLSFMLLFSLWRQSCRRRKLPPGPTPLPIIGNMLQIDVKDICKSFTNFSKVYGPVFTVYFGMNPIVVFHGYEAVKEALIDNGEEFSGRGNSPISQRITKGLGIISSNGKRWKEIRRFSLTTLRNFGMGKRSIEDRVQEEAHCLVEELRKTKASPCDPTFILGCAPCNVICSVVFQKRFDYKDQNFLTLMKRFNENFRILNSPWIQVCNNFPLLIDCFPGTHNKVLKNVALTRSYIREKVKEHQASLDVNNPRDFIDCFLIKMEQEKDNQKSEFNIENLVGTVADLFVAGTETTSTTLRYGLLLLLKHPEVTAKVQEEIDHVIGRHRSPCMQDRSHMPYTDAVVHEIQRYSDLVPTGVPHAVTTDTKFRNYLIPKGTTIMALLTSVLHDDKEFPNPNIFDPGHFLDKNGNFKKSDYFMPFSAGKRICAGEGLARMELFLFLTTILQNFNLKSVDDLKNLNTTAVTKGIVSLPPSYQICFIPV
# CYP-1A2, sequence (P05177 whole entry): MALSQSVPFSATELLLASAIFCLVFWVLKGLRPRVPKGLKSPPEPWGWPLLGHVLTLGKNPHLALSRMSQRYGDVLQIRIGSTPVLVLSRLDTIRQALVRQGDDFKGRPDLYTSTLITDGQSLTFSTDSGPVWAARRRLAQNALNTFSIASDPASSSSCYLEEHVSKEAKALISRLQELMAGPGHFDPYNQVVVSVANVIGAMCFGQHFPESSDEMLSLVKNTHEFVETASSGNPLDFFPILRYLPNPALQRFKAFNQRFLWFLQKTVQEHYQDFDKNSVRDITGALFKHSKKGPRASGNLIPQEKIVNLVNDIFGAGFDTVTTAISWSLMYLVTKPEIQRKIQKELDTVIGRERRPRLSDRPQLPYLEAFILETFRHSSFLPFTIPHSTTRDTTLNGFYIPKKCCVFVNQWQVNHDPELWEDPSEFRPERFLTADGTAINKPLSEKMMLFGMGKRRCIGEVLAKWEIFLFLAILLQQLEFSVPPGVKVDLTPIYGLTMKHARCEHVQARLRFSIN
# CYP-2D6, sequence (P10635 whole entry): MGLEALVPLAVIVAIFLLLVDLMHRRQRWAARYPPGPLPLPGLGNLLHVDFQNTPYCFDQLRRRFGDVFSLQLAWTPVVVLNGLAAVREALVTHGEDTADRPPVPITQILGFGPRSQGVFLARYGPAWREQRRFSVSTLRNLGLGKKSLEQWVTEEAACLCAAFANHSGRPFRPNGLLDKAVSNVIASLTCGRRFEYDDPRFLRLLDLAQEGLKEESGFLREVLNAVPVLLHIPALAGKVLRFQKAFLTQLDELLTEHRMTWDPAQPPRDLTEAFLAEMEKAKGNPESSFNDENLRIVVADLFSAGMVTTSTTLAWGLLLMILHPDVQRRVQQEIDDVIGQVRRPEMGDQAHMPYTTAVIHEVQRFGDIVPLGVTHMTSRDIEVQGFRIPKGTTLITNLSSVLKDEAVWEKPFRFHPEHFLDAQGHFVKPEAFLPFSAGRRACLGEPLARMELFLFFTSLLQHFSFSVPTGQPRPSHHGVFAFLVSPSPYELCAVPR
# CYP-2C19, sequence (P33261 whole entry): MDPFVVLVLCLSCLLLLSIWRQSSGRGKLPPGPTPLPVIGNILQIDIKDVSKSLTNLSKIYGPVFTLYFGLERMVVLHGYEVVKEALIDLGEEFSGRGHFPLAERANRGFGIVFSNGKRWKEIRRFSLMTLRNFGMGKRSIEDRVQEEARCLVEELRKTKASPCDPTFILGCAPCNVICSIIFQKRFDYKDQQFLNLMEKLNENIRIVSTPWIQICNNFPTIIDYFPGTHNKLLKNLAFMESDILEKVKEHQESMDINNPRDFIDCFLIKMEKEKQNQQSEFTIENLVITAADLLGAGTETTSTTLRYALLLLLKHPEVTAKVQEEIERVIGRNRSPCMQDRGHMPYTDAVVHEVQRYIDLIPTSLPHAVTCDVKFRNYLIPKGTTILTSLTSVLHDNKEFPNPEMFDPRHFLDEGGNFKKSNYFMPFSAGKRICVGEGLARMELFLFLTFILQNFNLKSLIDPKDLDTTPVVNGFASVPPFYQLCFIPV
structure (smiles),measurement,setting,value
COC(=O)c1ccc2c(c1)nc(-c1cccc3ccccc13)n2C(=O)c1ccc(F)c(F)c1 [Compound 848],Fold @ 1 nM,[1],1 fold
same,Fold @ 100 nM,[1],1 fold
same,Fold @ 10 uM,[1],5 fold
same,Fold relative to benchmark @ 100 nM,[1],0.04 fold
same,IC50,CYP-2C8,3.5 µM
same,IC50,CYP-1A2; [5],2.6 µM
same,IC50,CYP-2B6,16.7 µM
same,IC50,CYP-2D6,2.9 µM
same,IC50,CYP-3A4,13.7 µM
same,IC50,CYP-2C9,6.3 µM
same,IC50,CYP-2C19,1.1 µM
O=C(c1ccc(F)c(F)c1)n1c(-c2ccc(-c3ccccc3)cc2)nc2cc(Cl)ccc21 [Compound 643],Fold @ 1 nM,[1],1 fold
same,Fold @ 100 nM,[1],1 fold
same,Fold @ 10 uM,[1],2 fold
same,Fold relative to benchmark @ 100 nM,[1],0.11 fold
same,IC50,CYP-2C8,12.3 µM
same,IC50,CYP-1A2; [5],20.7 µM
same,IC50,CYP-2B6,> 50 µM
same,IC50,CYP-2D6,> 50 µM
same,IC50,CYP-3A4,> 50 µM
same,IC50,CYP-2C9,9.2 µM
same,IC50,CYP-2C19,> 50 µM
"O=c1c2cccc3cccc(c32)c2nc3cc(Cl)ccc3n12 [Compound 362, 6-chloro-3,10-diazapentacyclo[10.7.1.0^2,10.0^4,9.0^16,20]icosa-1(19),2,4(9),5,7,12,14,16(20),17-nonaen-11-one]",Rem @ MLM × 30 min,"[2]; mouse liver microsomes, 30 min, 1 μM compound, 0.5 mg/ml protein",12.0%
same,half-life at 1 μM,[2]; [6],9.8 min
same,microsomal CLint at 1 μM,[2]; [6],141 µL/min/mg
same,Fold @ 1 nM,[1],16 fold
same,Fold @ 100 nM,[1],22 fold
same,Fold relative to benchmark @ 100 nM,[1],1 fold
same,CL_CL/F,[3]; IV 2 mg/Kg,4.418 L/[Kg*h]
same,Vd_Vd/F,[3]; IV 2 mg/Kg,5.67 L/kg
same,thalf,[3]; IV 2 mg/Kg,0.889 h
same,CL_CL/F,[3]; PO 8 mg/Kg,7.86 L/[Kg*h]
same,Vd_Vd/F,[3]; PO 8 mg/Kg,8.314 L/kg
same,thalf,[3]; PO 8 mg/Kg,0.733 h
same,AUC(0-inf),"[3]; mouse, IV 2 mg/Kg",453 ng·h/mL
same,AUC(0-t),"[3]; mouse, IV 2 mg/Kg",451 ng·h/mL
same,MRT,"[3]; mouse, IV 2 mg/Kg",52.3 min
same,C0,"[3]; mouse, IV 2 mg/Kg",215 ng/mL
same,bioavailability,"[3]; mouse, PO 8 mg/Kg vs IV 2 mg/Kg",56.2%
same,AUC(0-inf),"[3]; mouse, PO 8 mg/Kg",1020 ng·h/mL
same,AUC(0-t),"[3]; mouse, PO 8 mg/Kg",1020 ng·h/mL
same,MRT,"[3]; mouse, PO 8 mg/Kg",98 min
same,Tmax,"[3]; mouse, PO 8 mg/Kg",60 min
same,C0,"[3]; mouse, PO 8 mg/Kg",427 ng/mL
same,Rem @ RLM × 30 min,"[4]; rat liver microsomes, 30 min, 1 μM compound, 0.5 mg/ml protein",14.5%
same,half-life at 1 μM,"[4]; rat, liver microsomes, pH 7.4",11.4 min
same,microsomal CLint at 1 μM,"[4]; rat, liver microsomes, pH 7.4",121 µL/min/mg
"COc1ccc(C(=O)n2c(-c3cccc4ccccc34)nc3ccc(Cl)cc32)cc1 [Compound 536, (6-chloro-2-(naphthalen-1-yl)-1H-benzo[d]imidazol-1-yl)(4-methoxyphenyl)methanone]",Fold @ 1 nM,[1],1 fold
same,Fold @ 100 nM,[1],39 fold
same,Fold @ 10 uM,[1],41 fold
same,Fold relative to benchmark @ 100 nM,[1],0.98 fold
same,IC50,CYP-2C8,17.1 µM
same,IC50,CYP-1A2; [5],0.6 µM
same,IC50,CYP-2B6,16 µM
same,IC50,CYP-2D6,> 50 µM
same,IC50,CYP-3A4,1.7 µM
same,IC50,CYP-2C9,4.8 µM
same,IC50,CYP-2C19,2.6 µM
O=C(C1CCCCC1)n1c(-c2cccc3ccccc23)nc2ccc(Cl)cc21 [Compound 640],Fold @ 1 nM,[1],1 fold
same,Fold @ 100 nM,[1],10 fold
same,Fold @ 10 uM,[1],15 fold
same,Fold relative to benchmark @ 100 nM,[1],1.21 fold
same,IC50,CYP-2C8,2.3 µM
same,IC50,CYP-1A2; [5],0.6 µM
same,IC50,CYP-2B6,31.1 µM
same,IC50,CYP-2D6,29 µM
same,IC50,CYP-3A4,3.8 µM
same,IC50,CYP-2C9,4.5 µM
same,IC50,CYP-2C19,2.4 µM
O=C(c1ccc(F)cc1)n1c(-c2cccc3ccccc23)nc2cc(Cl)ccc21 [Compound 586],Fold @ 1 nM,[1],7 fold
same,Fold @ 100 nM,[1],20 fold
same,Fold @ 10 uM,[1],18 fold
same,Fold relative to benchmark @ 100 nM,[1],1.33 fold
same,IC50,CYP-2C8,9.1 µM
same,IC50,CYP-1A2; [5],1.7 µM
same,IC50,CYP-2B6,22 µM
same,IC50,CYP-2D6,> 50 µM
same,IC50,CYP-3A4,1.3 µM
same,IC50,CYP-2C9,7.9 µM
same,IC50,CYP-2C19,7.1 µM
"Clc1ccc2c(c1)nc1n2Cc2cccc3cccc-1c23 [Compound 435, 6-chloro-3,10-diazapentacyclo[10.7.1.0^2,10.0^4,9.0^16,20]icosa-1(19),2,4(9),5,7,12,14,16(20),17-nonaene]",Fold @ 1 nM,[1],4 fold
same,Fold @ 100 nM,[1],28 fold
same,Fold @ 10 uM,[1],60 fold
same,Fold relative to benchmark @ 100 nM,[1],0.7 fold
same,IC50,CYP-2C8,19.2 µM
same,IC50,CYP-1A2,< 0.02 µM
same,IC50,CYP-2B6,> 50 µM
same,IC50,CYP-2D6,> 50 µM
same,IC50,CYP-3A4,5.3 µM
same,IC50,CYP-2C9,> 50 µM
same,IC50,CYP-2C19,> 50 µM
